Values of other authors in US11136546B2, “Recombinant Escherichia coli and application of the same” (Zhengzhou Zhonghao Biological Technology Co., Ltd., priority 2018, dated 2021).
Where no end group is shown, it is not given here.

Legend:
pathogenic E. coli = conditions: in vitro bacteriostatic tests; a variety of pathogenic E. coli
Salmonella = conditions: in vitro bacteriostatic tests

For “Microcin J25: antibacterial lasso peptide consisting of 21 amino acids (SEQ ID No.: 4), obtained by fermentation of genetically engineered Escherichia coli (GGAGHVPEYFVGIGTPISFYG; also: lasso cyclisation, places not given here)”, the “killing of pathogenic E. coli” value (pathogenic E. coli) is given as “able to kill” and the “killing of Salmonella” value (Salmonella) is given as “able to kill”.
